From patent US20070197957A1, “Implantable sensors, implantable pumps and anti-scarring drug combinations” (priority 2005, published 2007)

Legend:
[1] = potentiation of immunosuppressive agents
[2] = target: protein tyrosine phosphatase 1B (PTP1B) (Homo sapiens, UniProt P18031); details: cited from earlier work
endo-exonuclease = details: cited from earlier work
[3] = test system: phosphatases of regenerating liver (PRL); details: cited from earlier work
[4] = test system: mast cells and eosinophil
E. coli UB1005 C498 = experiment: MIC by microtitre broth dilution; format: cell-based; details: Mueller Hinton broth, 37° C., 24 h, aerobic
Experimental: (§1) MIC assays were conducted essentially as described by Amsterdam, D. 1996, “Susceptibility testing of antimicrobials in liquid media”, p. 52-111, in Loman, V., ed. Antibiotics in laboratory medicine, 4th ed. Williams and Wilkins, Baltimore, Md.

[5] = test system: K. pneumoniae ATCC13883 C238; experiment: MIC by microtitre broth dilution; format: cell-based; details: Mueller Hinton broth, 37° C., 24 h, aerobic
Experimental: as §1

S. aureus ATCC25923 C622 = experiment: MIC by microtitre broth dilution; format: cell-based; details: Mueller Hinton broth, 37° C., 24 h, aerobic
Experimental: as §1

S. pyogenes C721 = experiment: MIC by microtitre broth dilution; format: cell-based; details: Todd Hewitt broth, 37° C., 24 h, aerobic
Experimental: as §1

[6] = test system: P. aeruginosa PAE/K799 H187; experiment: MIC by microtitre broth dilution; format: cell-based; details: Mueller Hinton broth, 37° C., 24 h, aerobic
Experimental: as §1

S. epidermidis C621 = experiment: MIC by microtitre broth dilution; format: cell-based; details: Mueller Hinton broth, 37° C., 24 h, aerobic
Experimental: as §1

[7] = cited from earlier work; for solubility in alcohol / ethanol: alcohol or ethanol
C. glabrata = experiment: antifungal activity against C. glabrata; format: cell-based
p38 and JNK = p38 and JNK activation; format: cell-based
TNF-α = experiment: acute in vivo model of inflammation (LPS-induced TNF-α production); details: amoxapine alone or reduced dose prednisolone alone
NFAT = NFAT activation, translocation and transactivation; format: cell-based
glucocorticoid receptor = target: T1, glucocorticoid receptor (Homo sapiens, UniProt P04150); experiment: glucocorticoid receptor trafficking (mechanism study); format: cell-based
T1 construct: host or cells: T cells are named only for the GRE reporter experiment in the same sentence

[8] = chronic in vivo arthritis model (adjuvant model), joint swelling; details: amoxapine alone or reduced dose prednisolone alone
[9] = test system: carrageenan-induced paw edema; experiment: Rat carrageenan-induced paw edema model, paw swelling; format: in vivo; details: amoxapine alone at 2.26 mg/kg
Experimental: A dose-range finding study was performed to determine the anti-inflammatory activity of various ratios of methyl prednisolone acetate and amoxapine in a rat carrageenan-induced paw edema model. […] The molar ratio of methyl prednisolone acetate to amoxapine ranged from 1:1 to 1:300, using total doses of methyl prednisolone acetate of 0.01, 0.03 or 0.1 mg/kg.
The test agent (a combination of methyl prednisolone acetate and amoxapine), vehicle control, or reference agents (methyl prednisolone acetate, amoxapine, or Depo-Medrol®) were administered in the left hind foot pad of rats. After 60 minutes, paw edema was induced by injection of 100 μl of 1% carrageenan in the same foot pad. The paw volume was measured with a water displacement plethysmometer immediately prior to test agent injection (T-1h), at the time of carrageenan injection (T0h), and at T6h. Animals were euthanized by carbon dioxide inhalation. Paw tissue samples were collected and flash frozen in liquid nitrogen. Samples were assayed for TNF-α by enzyme-linked immunoassay (ELISA).

ERK = ERK activation; format: cell-based
NFkB and AP1 = NFkB and AP1 activation; format: cell-based
GRE reporter plasmid = experiment: transactivation of a transfected GRE reporter plasmid in T cells; format: cell-based

T1 sequence (P04150 whole entry, species assumed): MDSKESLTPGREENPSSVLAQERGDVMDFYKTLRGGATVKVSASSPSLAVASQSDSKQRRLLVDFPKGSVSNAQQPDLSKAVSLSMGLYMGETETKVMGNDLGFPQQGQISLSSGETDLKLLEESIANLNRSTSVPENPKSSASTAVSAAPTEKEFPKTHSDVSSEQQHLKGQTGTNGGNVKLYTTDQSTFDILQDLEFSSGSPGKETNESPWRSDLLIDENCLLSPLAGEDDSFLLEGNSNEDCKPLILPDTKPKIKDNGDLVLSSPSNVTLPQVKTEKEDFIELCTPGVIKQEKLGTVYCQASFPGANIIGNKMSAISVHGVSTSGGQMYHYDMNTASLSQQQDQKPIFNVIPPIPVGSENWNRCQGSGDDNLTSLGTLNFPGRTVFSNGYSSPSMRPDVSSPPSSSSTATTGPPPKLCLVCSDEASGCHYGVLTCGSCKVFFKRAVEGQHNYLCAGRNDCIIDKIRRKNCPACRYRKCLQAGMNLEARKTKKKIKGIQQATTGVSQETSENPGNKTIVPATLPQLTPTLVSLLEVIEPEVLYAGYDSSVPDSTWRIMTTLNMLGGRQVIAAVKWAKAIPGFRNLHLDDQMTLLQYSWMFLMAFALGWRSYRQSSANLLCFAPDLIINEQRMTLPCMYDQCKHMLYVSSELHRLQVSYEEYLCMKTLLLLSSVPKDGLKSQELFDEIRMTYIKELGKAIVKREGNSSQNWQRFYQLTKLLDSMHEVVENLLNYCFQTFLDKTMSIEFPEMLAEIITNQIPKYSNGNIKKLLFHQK
protein tyrosine phosphatase 1B (PTP1B), sequence (P18031 whole entry): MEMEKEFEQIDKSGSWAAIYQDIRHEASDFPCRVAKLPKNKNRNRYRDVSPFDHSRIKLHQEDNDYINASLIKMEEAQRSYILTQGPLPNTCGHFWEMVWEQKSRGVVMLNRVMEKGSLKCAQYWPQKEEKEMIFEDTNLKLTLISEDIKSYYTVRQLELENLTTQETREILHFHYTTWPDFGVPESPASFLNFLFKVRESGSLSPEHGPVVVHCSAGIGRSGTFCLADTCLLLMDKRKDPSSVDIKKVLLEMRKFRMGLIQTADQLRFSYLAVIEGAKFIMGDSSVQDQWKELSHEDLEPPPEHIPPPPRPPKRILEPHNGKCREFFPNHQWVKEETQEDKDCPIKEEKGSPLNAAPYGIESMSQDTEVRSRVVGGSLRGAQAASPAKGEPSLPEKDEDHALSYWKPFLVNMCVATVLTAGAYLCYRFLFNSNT

For Oc1cc(Cl)ccc1Oc1ccc(Cl)cc1Cl [triclosan], the “effect on potency of an immunosuppressive agent (e.g. cyclosporine)” value (“effect on potency” for short) [1] was “increases the potency”.
In the case of N=C(N)c1ccc(OCCCCCOc2ccc(C(=N)N)cc2)cc1 [pentamidine], the “inhibition of PTP1B” value [2] is given as “effective inhibitor”, the “inhibition of endo-exonuclease activity” value (endo-exonuclease) is given as “inhibit” and the “inhibition of oncogenic phosphatases of regenerating liver (PRL)” value [3] is given as “potent inhibitor”.
With CCOC(=O)N1CCC(=C2c3ccc(Cl)cc3CCc3cccnc32)CC1 [loratadine] the “effect on mast cells and eosinophil activation” value [4] was “inhibits”.
In the case of Sc1ncc2[nH]cnc2n1 [2-mercaptopurine], the “Minimum inhibitory concentration, E. coli UB1005 C498 wt Gram−” value (E. coli UB1005 C498) is reported as “N”, the “Minimum inhibitory concentration, K. pneumoniae ATCC13883 C238 wt Gram−” value [5] is reported as “N” and the “Minimum inhibitory concentration, S. aureus ATCC25923 C622 wt Gram+” value (S. aureus ATCC25923 C622) is reported as “N”. The “Minimum inhibitory concentration, S. pyogenes C721 wt Gram+” value (S. pyogenes C721) was “N”, the “Minimum inhibitory concentration, P. aeruginosa PAE/K799 H187 Wt Gram−” value [6] was “N” and the “Minimum inhibitory concentration, S. epidermidis C621 wt Gram+” value (S. epidermidis C621) was “N”.
For Nc1ccc(/N=N/c2ccccc2)c(N)n1 [Phenazopyridine, phenazopyridine], the “solubility in alcohol / ethanol” value [7] is listed as “slightly soluble in water and alcohol” and the “solubility in water” value ([7]; water) is listed as “slightly soluble in water and alcohol”.
In the case of CC[C@H](C)C[C@H](C)CCCCCCCCC(=O)N[C@H]1C[C@@H](O)[C@@H](NCCN)NC(=O)[C@@H]2[C@@H](O)CCN2C(=O)[C@H]([C@H](O)CCN)NC(=O)[C@H]([C@H](O)[C@@H](O)c2ccc(O)cc2)NC(=O)[C@@H]2C[C@@H](O)CN2C(=O)[C@H]([C@@H](C)O)NC1=O [caspofungin], the “enhancement of antifungal activity by a manganese compound” value (shortened to “enhancement of antifungal activity”) (C. glabrata) is reported as “enhances”.
With CCC(C)n1ncn(-c2ccc(N3CCN(c4ccc(OC[C@H]5CO[C@](Cn6cncn6)(c6ccc(Cl)cc6Cl)O5)cc4)CC3)cc2)c1=O (mixture of isomers) [itraconazole] the “enhancement of antifungal activity” value (C. glabrata) was “enhances”.
In the case of CN(C)C(=O)C(CCN1CCC(O)(c2ccc(Cl)cc2)CC1)(c1ccccc1)c1ccccc1 [Loperamide], the “effect on potency” value [1] is reported as “increase the potency”.
With CCN(CC)C(C)CN1c2ccccc2Sc2ccccc21 (stereo not drawn) [Ethopropazine, ethopropazine] the “effect on potency” value [1] was “increases the potency”.
With CN(Cc1cnc2nc(N)nc(N)c2n1)c1ccc(C(=O)N[C@@H](CCC(=O)O)C(=O)O)cc1 [methotrexate] the “Minimum inhibitory concentration, E. coli UB1005 C498 wt Gram−” value (E. coli UB1005 C498) was “N”, the “Minimum inhibitory concentration, K. pneumoniae ATCC13883 C238 wt Gram−” value [5] was 10^−6 Molar and the “Minimum inhibitory concentration, S. aureus ATCC25923 C622 wt Gram+” value (S. aureus ATCC25923 C622) was 10^−5 Molar. For the same compound, the “Minimum inhibitory concentration, S. pyogenes C721 wt Gram+” value (S. pyogenes C721) was 10^−6 Molar, the “Minimum inhibitory concentration, P. aeruginosa PAE/K799 H187 Wt Gram−” value [6] was “N” and the “Minimum inhibitory concentration, S. epidermidis C621 wt Gram+” value (S. epidermidis C621) was “N”.
For Clc1ccc2c(c1)C(N1CCNCC1)=Nc1ccccc1O2 [amoxapine], the “effect on p38 and JNK activation” value (p38 and JNK) was “Inhibition”, the “benefit of the single agent” value (TNF-α) was “modest or no benefit” and the “effect on NFAT activation, translocation and transactivation” value (NFAT) was “block”. For the same compound, the “promotion of glucocorticoid receptor trafficking” value (glucocorticoid receptor) was “does not promote”, the “benefit of the single agent” value [8] was “modest or no benefit” and the “paw edema compared with vehicle treatment, in words” value [9] was “not significantly different from the vehicle treatment”. The “effect on ERK activation” value (ERK) was “unaffected”, the “effect on NFkB and AP1 activation” value (NFkB and AP1) was “partially inhibits” and the “potentiation of prednisolone's ability to transactivate a GRE reporter plasmid” value (GRE reporter plasmid) was “does not potentiate”.
For NC(=O)c1ncn([C@@H]2O[C@H](CO)[C@@H](O)[C@H]2O)n1 [Ribavirin, ribavirin], the “solubility in alcohol / ethanol” value [7] is given as “only slightly soluble”.
With CNCCCC12CCC(c3ccccc31)c1ccccc12 [maprotiline] the “effect on potency” value [1] was “increases the potency”.
For OC(Cn1cncn1)(Cn1cncn1)c1ccc(F)cc1F [fluconazole], the “enhancement of antifungal activity” value (C. glabrata) was “enhances”.
In the case of N.N.[Cl][Pt][Cl] [cisplatin], the “Minimum inhibitory concentration, E. coli UB1005 C498 wt Gram−” value (E. coli UB1005 C498) is reported as “N”, the “Minimum inhibitory concentration, K. pneumoniae ATCC13883 C238 wt Gram−” value [5] is reported as “N” and the “Minimum inhibitory concentration, S. aureus ATCC25923 C622 wt Gram+” value (S. aureus ATCC25923 C622) is reported as “N”. The “Minimum inhibitory concentration, S. pyogenes C721 wt Gram+” value (S. pyogenes C721) was “N”, the “Minimum inhibitory concentration, P. aeruginosa PAE/K799 H187 Wt Gram−” value [6] was 10^−4 Molar and the “Minimum inhibitory concentration, S. epidermidis C621 wt Gram+” value (S. epidermidis C621) was “N”.
For CN(C/C=C/C#CC(C)(C)C)Cc1cccc2ccccc12.Cl [terbinafine], the “enhancement of antifungal activity” value (C. glabrata) was “enhances”.
In the case of Nc1ncnc2c1ccn2[C@@H]1O[C@H](CO)[C@@H](O)[C@H]1O [tubercidin], the “Minimum inhibitory concentration, E. coli UB1005 C498 wt Gram−” value (E. coli UB1005 C498) is reported as “N”, the “Minimum inhibitory concentration, K. pneumoniae ATCC13883 C238 wt Gram−” value [5] is reported as “N” and the “Minimum inhibitory concentration, S. aureus ATCC25923 C622 wt Gram+” value (S. aureus ATCC25923 C622) is reported as “N”. The “Minimum inhibitory concentration, S. pyogenes C721 wt Gram+” value (S. pyogenes C721) was “N”, the “Minimum inhibitory concentration, P. aeruginosa PAE/K799 H187 Wt Gram−” value [6] was “N” and the “Minimum inhibitory concentration, S. epidermidis C621 wt Gram+” value (S. epidermidis C621) was “N”.
